According to patent US9895344B2, “Treating various disorders with 7,8-dihydroxyflavone and derivatives thereof” (EMORY UNIVERSITY, priority 2008, dated 2018):

Key:
TrkB [1] = molecular target: T1, TrkB (Rattus norvegicus, UniProt Q63604); assay: TrkB receptor dimerization in cotransfected HEK293 cells (GST pull-down); type: cell-based; design: expressed in transfected cells; host or cells: HEK293
Method: BDNF is known to bind the TrkB receptor and provoke its dimerization (Barbacid, J. Neurobiol., 25:1386-1403, 1994; Klein et al, Cell, 66:395-403, 1991). To explore whether 7,8-dihydroxyflavone triggers TrkB receptor dimerization, HEK293 cells were cotransfected with GST-TrkB and HA-TrkB or HA-TrkA. The cells were then treated with BDNF or small flavone compounds (0.5 μM) for 30 minutes. The cells were harvested, washed once in PBS, and lysed in 1 ml lysis buffer (50 mM Tris, ph 7.4, 150 mM NaCl, 1 mM EDTA, 0.5% Triton X-100, 1.5 mM Na3VO4, 50 mM NaF, 10 mM sodium pyrophosphate, 10 mM sodium β-glycerophosphate, 1 mM phenylmethylsulfonyl fluoride (PMSF), 5 mg/ml aprotinin, 1 mg/ml leupeptin, 1 mg/ml pepstatin A) and centrifuged for 10 minutes at 14,000×g at 4° C. The supernatant was transferred to a fresh tube and transfected TrkB receptor was separated from the supernatant with glutathione beads, and the coprecipitated proteins were resolved on SDS-PAGE.
Target sequence in this assay (Q63604 32-821): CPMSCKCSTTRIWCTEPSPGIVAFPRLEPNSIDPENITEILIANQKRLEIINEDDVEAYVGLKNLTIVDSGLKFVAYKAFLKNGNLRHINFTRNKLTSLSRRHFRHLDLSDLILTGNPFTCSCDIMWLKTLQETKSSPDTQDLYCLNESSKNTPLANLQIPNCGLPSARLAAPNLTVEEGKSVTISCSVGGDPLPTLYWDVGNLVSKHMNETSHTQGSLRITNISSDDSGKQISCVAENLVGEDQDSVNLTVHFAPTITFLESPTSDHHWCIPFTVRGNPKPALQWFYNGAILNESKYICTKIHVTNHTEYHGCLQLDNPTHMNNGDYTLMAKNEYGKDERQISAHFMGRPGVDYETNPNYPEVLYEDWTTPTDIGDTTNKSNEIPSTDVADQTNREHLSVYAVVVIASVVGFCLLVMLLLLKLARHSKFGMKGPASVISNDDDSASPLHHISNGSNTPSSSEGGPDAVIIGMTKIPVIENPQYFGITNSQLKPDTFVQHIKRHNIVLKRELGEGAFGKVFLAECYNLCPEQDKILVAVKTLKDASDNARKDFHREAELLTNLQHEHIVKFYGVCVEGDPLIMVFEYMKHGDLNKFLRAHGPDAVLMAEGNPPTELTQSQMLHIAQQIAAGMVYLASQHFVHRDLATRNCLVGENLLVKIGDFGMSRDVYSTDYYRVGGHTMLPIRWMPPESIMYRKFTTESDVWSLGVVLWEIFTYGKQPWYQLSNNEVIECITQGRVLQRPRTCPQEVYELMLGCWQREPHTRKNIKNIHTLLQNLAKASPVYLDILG
Target sequence in this assay (Q63604 32-821): as above

TrkB [2] = molecular target: T1, TrkB; assay: Immunofluorescent staining of hippocampal neurons with anti-phospho TrkB antibody; type: cell-based; design: endogenous in cells; host or cells: primary hippocampal neurons; conditions: 1 μM, 30 minutes, FIG. 8
Method: Primary hippocampal neurons were seeded on poly-L lysine coated coverslips in a 12-well plate. After 7 days in vitro, the neurons were treated with 100 ng/ml BDNF or variety of flavone compounds (1 μM) for 30 minutes, and then washed with PBS. Cells were fixed with 3% formaldehyde in PBS at room temperature for 10 minutes. The cells were then permeabilized and blocked by 0.4% Triton X-100 and 2% FBS in PBS at room temperature for 15 minutes, washed with PBS three times and treated with anti-MAP2 (1:200) and anti-phospho-TrkB antibodies (1:500). After staining with FITC- or Rhodamine-conjugated secondary antibody, the coverslips were mounted on slides. Fluorescent images were taken by OLYMPUS IX71 fluorescence microscope (Olympus; Center Valley, Pa.).
BDNF binding to TrkB induces its autophosphorylation and, subsequently, activation of downstream kinase pathways including MAPK and PI3/Akt. To explore whether 7,8-dihydroxyflavone triggers TrkB activation, immunofluorescent staining on hippocampal neurons with anti-phospho TrkB antibody was conducted.
Target sequence in this assay (Q63604 32-821): as above

Akt = assay: Western analysis of Akt phosphorylation in hippocampal neurons; type: cell-based
Method: (§1) To further examine whether 7,8-dihydroxyflavone can stimulate TrkB-mediated downstream signaling cascades, Western analysis was performed.
(§2) To probe the time course of 7,8-dihydroxyflavone triggered TrkB activation, hippocampal neurons were treated with 7,8-dihydroxyflavone at 500 nM and phosphorylation of Erk and Akt was determined over time by Western analysis. […] Stimulation of Erk and Akt by 7,8-dihydroxyflavone also occurred in a dose dependent manner.

KA-provoked apoptosis = assay: KA-provoked neuronal cell death in TrkB F616A knockin mice, intraperitoneal (caspase-3 immunoblot); type: in vivo
Method: To determine if 1NMPP1 would make neurons treated with 7,8-dihydroxyflavone vulnerable to KA-provoked neuronal cell death, TrkF616A knockin mice were fed with 1NMPP1 (25 mM) in drinking water one day prior to pharmacological reagent treatment. The next day, the mice were intraperitoneally injected with KA (25 mg/kg), or 7,8-dihydroxyflavone (5 mg/kg) 4 hours prior to KA injection. The control mice were injected with either KA or 7,8-dihydroxyflavone alone, or the mice were administered 7,8-dihydroxyflavone 4 hours before KA. In 4 days, the mice were sacrificed and the brains were homogenated and ultracentrifuged. The supernatant was employed for SDS-PAGE and immunoblotting analysis.

Erk = assay: Western analysis of Erk phosphorylation in hippocampal neurons; type: cell-based
Method: as §1, §2

GST-TrkB ECD = GST-TrkB ECD (Rattus norvegicus, UniProt Q63604); assay: In vitro binding assay with immobilized GST-TrkB ECD on glutathione beads, UV-spectrometry of eluate; conditions: 500 nM, 4° C., 30 minutes, FIG. 17
Method: To further explore the association of 7,8-dihydroxyflavone and the TrkB receptor, an in vitro binding assay was performed. Increasing volumes of GST-TrkB ECD and GST-TrkB ICD were bound to glutathione beads to a total of 250 uL, and 500 nM 7,8-dihydroxyflavone in 250 μl (20% DMSO/80% PBS) was incubated with the beads in the column at 4° C. for 30 minutes. After the incubation, the elute fractions were collected and the concentration of eluted 7,8-dihydroxyflavone was analyzed by UV-spectrometry at a wavelength of 410 nm.

TrkA = TrkA (Mus musculus, UniProt Q3UFB7); assay: Trk activation in wild-type and TrkC knockout cortical neurons: TrkA; type: cell-based, mice; design: from tissue; host or cells: mouse brain; conditions: FIG. 22
Method: To further assess whether 7,8-dihydroxyflavone blocks neuronal apoptosis in a TrkB dependent manner, cortical neurons were prepared from homozygous pups of TrkC+/−mice, which were mated to the same genotype. […] Glutamate weakly stimulated both TrkA and TrkB faint phosphorylation regardless of TrkC genotype (FIG. 22, rows 1 and 3). The spontaneous caspase-3 activation in TrkC−/− neurons was suppressed by 7,8-dihydroxyflavone (FIG. 22, row 5).

TrkB [3] = molecular target: T2, TrkB (Mus musculus, UniProt P15209); assay: TrkB activation in mouse brain after intraperitoneal injection; type: in vivo, mice; conditions: 5 mg/kg intraperitoneally
T2 construct: from tissue; host or cells: mouse brain
Method: To assess whether 7,8-dihydroxyflavone can provoke TrkB activation in the brain, mice were intraperitoneally injected with a dose of 5 mg/kg and analyzed at various time points. […] Further, as shown in FIG. 12 (right panel), the protein and mRNA levels of the neurotrophic receptors were not altered after treatment with 7,8-dihydroxyflavone.

[4] = Toxicity after 3-week chronic treatment (organ pathology, complete blood count); type: in vivo, mice
Method: To explore whether 4′-dimethylamino-7,8-dihydroxyflavone and 7,8-dihydroxyflavone have any intolerable toxicity, the major organs from mice treated with both compounds at 5 mg/kg/day for 3 weeks were analyzed.

T2 sequence (P15209 32-821): as the sequence (Q63604 32-821) above, with M3T, T9S, T10A, I32V, K63R, G84S, T153M, I185L, T394S, N770S counted along it
GST-TrkB ECD, sequence (Q63604 32-429 limits assumed): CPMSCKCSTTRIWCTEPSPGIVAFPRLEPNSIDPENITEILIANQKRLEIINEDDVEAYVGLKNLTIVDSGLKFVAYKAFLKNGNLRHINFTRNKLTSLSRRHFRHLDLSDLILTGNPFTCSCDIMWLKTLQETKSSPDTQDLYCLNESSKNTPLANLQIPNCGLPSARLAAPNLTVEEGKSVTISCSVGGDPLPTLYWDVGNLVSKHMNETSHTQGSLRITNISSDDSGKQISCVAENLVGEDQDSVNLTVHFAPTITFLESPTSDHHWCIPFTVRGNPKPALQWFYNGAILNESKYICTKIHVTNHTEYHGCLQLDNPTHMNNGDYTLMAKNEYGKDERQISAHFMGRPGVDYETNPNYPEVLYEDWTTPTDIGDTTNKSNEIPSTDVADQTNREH
TrkA, sequence (Q3UFB7 34-799): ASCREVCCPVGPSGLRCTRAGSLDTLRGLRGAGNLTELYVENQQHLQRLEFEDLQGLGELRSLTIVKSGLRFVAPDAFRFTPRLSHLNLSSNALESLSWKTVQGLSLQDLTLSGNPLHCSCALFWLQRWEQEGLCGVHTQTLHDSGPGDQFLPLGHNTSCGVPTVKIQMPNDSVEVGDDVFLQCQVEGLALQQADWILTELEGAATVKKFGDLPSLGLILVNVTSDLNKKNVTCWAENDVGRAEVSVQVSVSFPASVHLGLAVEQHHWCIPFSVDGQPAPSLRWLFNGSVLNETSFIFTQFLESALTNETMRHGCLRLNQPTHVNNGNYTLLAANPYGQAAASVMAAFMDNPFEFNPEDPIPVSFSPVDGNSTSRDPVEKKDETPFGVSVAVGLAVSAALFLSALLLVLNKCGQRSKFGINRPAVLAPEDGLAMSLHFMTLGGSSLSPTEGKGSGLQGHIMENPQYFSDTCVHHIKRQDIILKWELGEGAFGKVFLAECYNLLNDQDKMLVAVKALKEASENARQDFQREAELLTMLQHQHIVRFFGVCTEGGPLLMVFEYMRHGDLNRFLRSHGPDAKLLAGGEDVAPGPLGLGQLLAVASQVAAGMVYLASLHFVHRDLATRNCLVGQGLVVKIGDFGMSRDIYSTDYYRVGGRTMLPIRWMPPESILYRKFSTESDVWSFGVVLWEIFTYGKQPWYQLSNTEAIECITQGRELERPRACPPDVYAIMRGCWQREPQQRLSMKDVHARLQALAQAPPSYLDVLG

SMILES: O=c1cc(-c2ccccc2)oc2c(O)c(O)ccc12 [7,8-dihydroxyflavone]
- dimerization of TrkB with TrkA receptor (TrkB [1]; GST-TrkB and HA-TrkA cotransfected): failed to dimerize with TrkA receptor
- TrkB dimerization (TrkB [1]; GST-TrkB and HA-TrkB, 0.5 μM, 30 minutes, FIG. 14): provoked TrkB dimerization to a similar manner as BDNF
- TrkB tyrosine phosphorylation (immunofluorescence) (TrkB [2]): provoked TrkB tyrosine phosphorylation similar to BDNF
- time at which Akt phosphorylation peaked (Akt; 500 nM): 30 min
- time at which Akt phosphorylation was seen (Akt; 500 nM): 10 min
- time by which Akt phosphorylation faded (Akt; 500 nM): 180 min
- Akt activation (Western) (Akt; FIG. 9): activated
- concentration at which Akt activation was observed (Akt; treatment for 30 minutes): 100 nm
- KA-provoked apoptosis (KA-provoked apoptosis; 5 mg/kg intraperitoneally 4 hours prior to KA (25 mg/kg)): suppressed KA-provoked apoptosis
- protective effect against KA after 1NMPP1 pretreatment (KA-provoked apoptosis; 1NMPP1 in drinking water one day prior): abolished
- apoptosis in TrkB F616A mice, treatment alone without KA (KA-provoked apoptosis; FIG. 24): no effect on apoptosis
- time at which Erk phosphorylation was observed (Erk; 500 nM): 5 min
- time by which Erk phosphorylation faded (Erk; 500 nM): 180 min
- Erk activation (Western) (Erk; FIG. 9): activated
- concentration at which Erk phosphorylation was observed (Erk; treatment for 30 minutes): 250 nM
- concentration of eluted compound as GST-TrkB ECD volumes increased (GST-TrkB ECD): decreased
- TrkA activation in wild-type and TrkC knockout neurons (TrkA): not TrkA activation
- TrkB phosphorylation in the brain (TrkB [3]; 2 hours after injection, FIG. 12): selectively phosphorylated
- protein and mRNA levels of the neurotrophic receptors (TrkB [3]; FIG. 12 right): not altered
- TrkB phosphorylation in the hippocampus (immunofluorescent staining) (TrkB [3]; FIG. 13): substantial TrkB phosphorylation
- toxicity to the mice ([4]; 5 mg/kg/day dose for 3-week chronic treatment): neither compound was toxic
- complete blood count (CBC) versus control saline-treated mice ([4]; mouse, in vivo): no significant difference
